Assay results from ChEMBL document CHEMBL1131604, “3,6-Diamino-10-methylacridan: uncharged precursor of acriflavine and its unique antimicrobial activity” (1998).

Columns and labels:
[1] = test system: Human alphaherpesvirus 1; assay: Reduction of titer of Herpes simplex type-1 virus after 2 hr of incubation at 0.1% concentration; assay type: functional
[2] = test system: Human alphaherpesvirus 1; assay: Reduction of titer of Herpes simplex type-1 virus after 2 hr of incubation at 0.01% concentration; assay type: functional

CN1c2cc(N)ccc2Cc2ccc(N)cc21
TCID50 [1]: 3.7 | TCID50 [2]: 1.6
